Assay results as given in patent publication US8471005B2 (Cephalon, Inc., priority 2008, dated 2013).
Like-named read-outs stand apart in the source and are kept apart here.

Legend:
JAK2 = target: T1, JAK2 (Homo sapiens, UniProt O60674); assay: Recombinant Human JAK2 Kinase Assay (TRF); assay type: biochemical; conditions: read-out: JAK2 Potency
T1 construct: host or cells: baculovirus expression system
In short: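 Kinase activity of baculovirus-expressed JAK2 is followed on a surface-immobilised biotinylated peptide, with the reaction run for 20 min at room temperature in buffer containing 0.2 μM ATP and manganese. Phosphorylation is read with Eu-N1 PY100 antibody.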

ALK = target: T2, ALK (Homo sapiens, UniProt Q9UM73); assay: ALK Kinase Assay (ELISA/TRF, PLC-γ substrate); assay type: biochemical; conditions: read-out: ALK Potency
T2 construct: host or cells: baculovirus expression system
In short: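 Wells were coated with 10 μg/mL phospholipase C-γ substrate in TBS, and the reaction was started by adding 30 ng/ml ALK enzyme and run at 37° C for 15 minutes. Phosphorylated product was detected with Eu-N1-labeled PT66 antibody, and IC50 values came from sigmoidal variable-slope fits of percent inhibition against log concentration.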

[1] = JAK2 kinase inhibition, 0.2 μM ATP
[2] = ALK kinase inhibition, 1 μM ATP

T1 sequence (O60674 whole entry): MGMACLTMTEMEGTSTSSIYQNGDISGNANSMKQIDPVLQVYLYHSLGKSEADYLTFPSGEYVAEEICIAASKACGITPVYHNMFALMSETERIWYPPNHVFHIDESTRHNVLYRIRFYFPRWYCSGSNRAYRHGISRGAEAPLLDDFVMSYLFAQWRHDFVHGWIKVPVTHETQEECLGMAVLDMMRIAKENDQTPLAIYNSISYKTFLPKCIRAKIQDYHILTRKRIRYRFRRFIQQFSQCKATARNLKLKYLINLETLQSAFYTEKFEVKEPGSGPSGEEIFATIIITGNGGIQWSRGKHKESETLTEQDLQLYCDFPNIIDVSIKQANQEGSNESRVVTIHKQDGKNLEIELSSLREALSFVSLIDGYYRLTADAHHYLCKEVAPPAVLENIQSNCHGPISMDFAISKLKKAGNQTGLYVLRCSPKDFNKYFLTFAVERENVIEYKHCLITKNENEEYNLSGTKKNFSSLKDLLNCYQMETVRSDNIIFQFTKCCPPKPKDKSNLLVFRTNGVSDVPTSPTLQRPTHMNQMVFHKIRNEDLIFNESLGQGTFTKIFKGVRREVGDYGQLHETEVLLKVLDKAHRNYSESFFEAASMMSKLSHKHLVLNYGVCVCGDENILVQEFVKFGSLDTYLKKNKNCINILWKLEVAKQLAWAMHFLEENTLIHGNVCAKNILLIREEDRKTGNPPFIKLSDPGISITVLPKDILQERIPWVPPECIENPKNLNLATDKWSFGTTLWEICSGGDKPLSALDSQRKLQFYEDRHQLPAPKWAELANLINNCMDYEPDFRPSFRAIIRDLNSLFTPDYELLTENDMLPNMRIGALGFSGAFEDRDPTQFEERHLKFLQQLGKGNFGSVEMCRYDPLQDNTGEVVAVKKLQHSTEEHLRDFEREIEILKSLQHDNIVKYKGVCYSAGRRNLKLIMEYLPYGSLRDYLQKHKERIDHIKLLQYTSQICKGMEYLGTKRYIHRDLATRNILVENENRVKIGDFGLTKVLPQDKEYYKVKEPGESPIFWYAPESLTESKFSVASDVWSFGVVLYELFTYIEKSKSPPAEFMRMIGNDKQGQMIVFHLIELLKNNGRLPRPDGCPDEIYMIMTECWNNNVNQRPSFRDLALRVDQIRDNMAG
T2 sequence (Q9UM73 19-1620): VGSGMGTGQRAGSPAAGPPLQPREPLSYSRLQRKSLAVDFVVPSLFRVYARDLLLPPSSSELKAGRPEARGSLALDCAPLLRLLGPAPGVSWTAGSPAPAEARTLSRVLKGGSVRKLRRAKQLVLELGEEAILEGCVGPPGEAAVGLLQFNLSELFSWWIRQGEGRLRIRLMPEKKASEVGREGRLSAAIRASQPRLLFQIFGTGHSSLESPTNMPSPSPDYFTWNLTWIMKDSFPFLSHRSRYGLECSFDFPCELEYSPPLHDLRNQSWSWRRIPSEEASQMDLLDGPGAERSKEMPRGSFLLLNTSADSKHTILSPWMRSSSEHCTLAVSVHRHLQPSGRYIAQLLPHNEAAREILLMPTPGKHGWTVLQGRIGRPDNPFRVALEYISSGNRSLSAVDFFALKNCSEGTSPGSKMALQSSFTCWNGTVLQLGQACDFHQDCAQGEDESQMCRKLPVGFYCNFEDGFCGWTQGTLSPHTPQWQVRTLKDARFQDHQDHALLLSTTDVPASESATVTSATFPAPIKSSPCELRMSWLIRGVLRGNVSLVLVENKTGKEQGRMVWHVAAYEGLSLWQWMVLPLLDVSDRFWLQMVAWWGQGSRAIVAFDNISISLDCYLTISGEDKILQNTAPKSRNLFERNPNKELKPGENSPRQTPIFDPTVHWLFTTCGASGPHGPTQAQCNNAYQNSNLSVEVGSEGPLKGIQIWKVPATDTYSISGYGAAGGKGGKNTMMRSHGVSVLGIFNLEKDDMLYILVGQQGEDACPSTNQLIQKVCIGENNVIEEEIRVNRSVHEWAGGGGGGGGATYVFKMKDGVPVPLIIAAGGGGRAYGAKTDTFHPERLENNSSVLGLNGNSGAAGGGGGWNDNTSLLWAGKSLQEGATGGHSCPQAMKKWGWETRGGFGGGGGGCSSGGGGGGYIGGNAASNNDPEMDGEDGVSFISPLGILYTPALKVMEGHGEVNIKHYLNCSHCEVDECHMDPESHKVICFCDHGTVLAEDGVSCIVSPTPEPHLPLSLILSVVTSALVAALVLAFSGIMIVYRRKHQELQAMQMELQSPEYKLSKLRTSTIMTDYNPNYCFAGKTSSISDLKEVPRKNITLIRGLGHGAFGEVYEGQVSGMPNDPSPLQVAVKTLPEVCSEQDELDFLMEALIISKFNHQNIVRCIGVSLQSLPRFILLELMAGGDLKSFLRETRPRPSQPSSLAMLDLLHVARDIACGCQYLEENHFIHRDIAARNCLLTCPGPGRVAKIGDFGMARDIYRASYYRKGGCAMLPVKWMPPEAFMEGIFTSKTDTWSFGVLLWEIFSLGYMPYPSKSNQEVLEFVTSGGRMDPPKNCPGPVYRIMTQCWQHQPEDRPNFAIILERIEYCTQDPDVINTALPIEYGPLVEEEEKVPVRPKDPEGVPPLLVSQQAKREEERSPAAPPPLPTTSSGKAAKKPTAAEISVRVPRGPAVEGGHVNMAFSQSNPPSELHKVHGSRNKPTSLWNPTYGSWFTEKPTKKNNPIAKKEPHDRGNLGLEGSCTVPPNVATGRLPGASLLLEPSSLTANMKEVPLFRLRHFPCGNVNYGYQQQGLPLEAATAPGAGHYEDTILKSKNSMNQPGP

Compound | IC50 (JAK2; [1]) [nM] | IC50 (ALK; [2]) [nM] | IC50 (JAK2; JAK2 Kinase Inhibition) [nM] | IC50 (ALK; ALK Kinase Inhibition) [nM]
CN(c1ccccc1-c1ccc2cnc(Nc3ccc(N4CCOCC4)cc3F)nn12)S(C)(=O)=O [Example 386, N-{2-[2-(2-Fluoro-4-morpholin-4-yl-phenylamino)-pyrrolo[2,1-f][1,2,4]triazin-7-yl]-phenyl}-N-methyl-methanesulfonamide] |  |  | < 100 | 100 to 1000
COc1ccc(-c2ccc3cnc(Nc4ccc(C5CC6CCC(C5)N6C)cc4)nn23)cn1 (stereo not shown) [Example 944, [7-(6-Methoxy-pyridin-3-yl)-pyrrolo[2,1-f][1,2,4]triazin-2-yl]-[4-(8-methyl-8-aza-bicyclo[3.2.1]oct-3-yl)-phenyl]-amine] | < 100 | 100 to 1000 |  | 
COc1cc(C2CCN(C(=O)C(C)(C)N)CC2)ccc1Nc1ncc2ccc(-c3ccccc3OC)n2n1 [Example 821, 2-Amino-1-(4-{3-methoxy-4-[7-(2-methoxy-phenyl)-pyrrolo[2,1-f][1,2,4]triazin-2-ylamino]-phenyl}-piperidin-1-yl)-2-methyl-propan-1-one] | 100 to 1000 | < 100 |  | 
CN(C)C1CCC(c2ccc(Nc3ncc4ccc(-c5cccc(S(=O)(=O)NC(C)(C)C)c5)n4n3)cc2)CC1 (stereo not shown) [Example 567, N-tert-Butyl-3-{2-[4-(4-dimethylamino-cyclohexyl)-phenylamino]-pyrrolo[2,1-f][1,2,4]triazin-7-yl}-benzenesulfonamide] | < 100 | 100 to 1000 |  | 
COc1ccccc1-c1ccc2cnc(Nc3ccc4c(c3)CN(CC(N)=O)C4)nn12 [Example 925, 2-{5-[7-(2-Methoxy-phenyl)-pyrrolo[2,1-f][1,2,4]triazin-2-ylamino]-1,3-dihydro-isoindol-2-yl}-acetamide] | < 100 | 100 to 1000 |  | 
CCNS(=O)(=O)c1cccc(-c2ccc3cnc(Nc4ccc(C5CCN(C)CC5)cc4)nn23)c1 [Example 907, N-Ethyl-3-{2-[4-(1-methyl-piperidin-4-yl)-phenylamino]-pyrrolo[2,1-f][1,2,4]triazin-7-yl}-benzenesulfonamide] | < 100 | < 100 |  | 
COc1ccccc1-c1ccc2cnc(Nc3ccc4c(c3)C(=O)CC3(CCN(C)CC3)O4)nn12 [Example 376] |  |  | < 100 | 100 to 1000
CN1CCN(c2ccc(Nc3ncc4c(Br)cc(-c5ccc(S(C)(=O)=O)cc5)n4n3)cc2)CC1 [Example 91, [5-Bromo-7-(4-methanesulfonyl-phenyl)-pyrrolo[2,1-f][1,2,4]triazin-2-yl]-[4-(4-methyl-piperazin-1-yl)-phenyl]-amine] |  |  | < 100 | 100 to 1000
COc1ccc(Cl)cc1-c1ccc2cnc(Nc3ccc4ncccc4c3)nn12 [Example 173, [7-(5-Chloro-2-methoxy-phenyl)-pyrrolo[2,1-f][1,2,4]triazin-2-yl]-quinolin-6-yl-amine] |  |  | < 100 | 100 to 1000
N#Cc1cccc(-c2ccc3cnc(Nc4ccc(N5CCOCC5)cc4)nn23)c1 [Example 39, 3-[2-(4-Morpholin-4-yl-phenylamino)-pyrrolo[2,1-f][1,2,4]triazin-7-yl]-benzonitrile] |  |  | < 100 | > 10000
COc1ccc(-c2ccc3cnc(Nc4cccc(NC(=O)[C@@H](C)OC)c4)nn23)cn1 [Example 900, (R)-2-Methoxy-N-{3-[7-(6-methoxy-pyridin-3-yl)-pyrrolo[2,1-f][1,2,4]triazin-2-ylamino]-phenyl}-propionamide] | < 100 | 100 to 1000 |  | 
COc1cc(N2CCN(C[C@H](C)O)CC2)ccc1Nc1ncc2ccc(-c3c(OC)cccc3OC)n2n1 [Example 543, (S)-1-(4-{4-[7-(2,6-Dimethoxy-phenyl)-pyrrolo[2,1-f][1,2,4]triazin-2-ylamino]-3-methoxy-phenyl}-piperazin-1-yl)-propan-2-ol] | 1000 to 10000 | < 100 |  | 
COc1cc(N2CCC[C@H](C(=O)N3CCN(C)CC3)C2)ccc1Nc1ncc2ccc(-c3ccccc3N(C)S(C)(=O)=O)n2n1 [Example 460, N-[2-(2-{2-Methoxy-4-[(S)-3-(4-methyl-piperazine-1-carbonyl)-piperidin-1-yl]-phenylamino}-pyrrolo[2,1-f][1,2,4]triazin-7-yl)-phenyl]-N-methyl-methanesulfonamide] |  |  | 100 to 1000 | < 100
[7-(4-Methanesulfonyl-phenyl)-pyrrolo[2,1-f][1,2,4]triazin-2-yl]-(4-morpholin-4-yl-phenyl)-amine [Example 38] |  |  | < 100 | 100 to 1000
Cc1cc2cnc(Nc3ccc(C4CCN(CC(N)=O)CC4)cc3)nn2c1-c1ccccc1N(C)S(C)(=O)=O [Example 516, 2-[4-(4-{7-[2-(Methanesulfonyl-methyl-amino)-phenyl]-6-methyl-pyrrolo[2,1-f][1,2,4]triazin-2-ylamino}-phenyl)-piperidin-1-yl]-acetamide] | < 100 | 1000 to 10000 |  | 
Clc1cccc(-c2ccc3cnc(Nc4ccc(N5CCC(N6CCOCC6)CC5)cc4)nn23)c1 [Example 336, [7-(3-Chloro-phenyl)-pyrrolo[2,1-f][1,2,4]triazin-2-yl]-[4-(4-morpholin-4-yl-piperidin-1-yl)-phenyl]-amine] |  |  | < 100 | 100 to 1000
COc1cc2c(cc1Nc1ncc3ccc(-c4ccccc4N(C)S(C)(=O)=O)n3n1)CN(C(=O)CN)C2 [Example 879, N-(2-{2-[2-(2-Amino-acetyl)-6-methoxy-2,3-dihydro-1H-isoindol-5-ylamino]-pyrrolo[2,1-f][1,2,4]triazin-7-yl}-phenyl)-N-methyl-methanesulfonamide] | 100 to 1000 | < 100 |  | 
COc1ccc(-c2ccc3cnc(Nc4ccc(C5(C#N)CCN(CC(N)=O)CC5)cc4)nn23)cn1 [Example 1545, 2-(4-Cyano-4-{4-[7-(6-methoxy-pyridin-3-yl)-pyrrolo[2,1-f][1,2,4]triazin-2-ylamino]-phenyl}-piperidin-1-yl)-acetamide] |  |  | < 100 | 100 to 1000

Other lines, results leading:

IC50 (JAK2; [1]) [nM] | IC50 (ALK; [2]) [nM] | IC50 (JAK2; JAK2 Kinase Inhibition) [nM] | IC50 (ALK; ALK Kinase Inhibition) [nM] | Compound
< 100 | < 100 |  |  | COc1ccccc1-c1ccc2cnc(Nc3ccc(C4CCN(CC(N)=O)CC4)c(C)c3)nn12 [Example 935, 2-(4-{4-[7-(2-Methoxy-phenyl)-pyrrolo[2,1-f][1,2,4]triazin-2-ylamino]-2-methyl-phenyl}-piperidin-1-yl)-acetamide]
 |  | < 100 | 100 to 1000 | CN1CCN(C(=O)c2ccc(Nc3ncc4ccc(-c5ccccc5N(C)S(C)(=O)=O)n4n3)cc2)CC1 [Example 1425, N-Methyl-N-(2-{2-[4-(4-methyl-piperazine-1-carbonyl)-phenylamino]-pyrrolo[2,1-f][1,2,4]triazin-7-yl}-phenyl)-methanesulfonamide]
100 to 1000 | < 100 |  |  | COc1cc(CN2CCC(O)CC2)ccc1Nc1ncc2ccc(-c3ccccc3OC)n2n1 [Example 1235, 1-{3-Methoxy-4-[7-(2-methoxy-phenyl)-pyrrolo[2,1-f][1,2,4]triazin-2-ylamino]-benzyl}-piperidin-4-ol]
 |  | < 100 | 100 to 1000 | COCc1ccc(-c2ccc3cnc(Nc4ccc(N5CCN(C)CC5)cc4)nn23)cc1 [Example 1499, [7-(4-Methoxymethyl-phenyl)-pyrrolo[2,1-f][1,2,4]triazin-2-yl]-[4-(4-methyl-piperazin-1-yl)-phenyl]-amine]
< 100 | 100 to 1000 |  |  | CN1CCN(c2ccc(Nc3ncc4ccc(-c5cn(C)cn5)n4n3)cc2)CC1 [Example 1043, [7-(1-Methyl-1H-imidazol-4-yl)-pyrrolo[2,1-f][1,2,4]triazin-2-yl]-[4-(4-methyl-piperazin-1-yl)-phenyl]-amine]
< 100 | 100 to 1000 |  |  | CC(C)(C)NS(=O)(=O)c1cccc(-c2ccc3cnc(Nc4ccc(C5CCNCC5)cc4)nn23)c1 [Example 1059, N-tert-Butyl-3-[2-(4-piperidin-4-yl-phenylamino)-pyrrolo[2,1-f][1,2,4]triazin-7-yl]-benzenesulfonamide]
< 100 | 1000 to 10000 |  |  | COc1ccncc1-c1ccc2cnc(Nc3ccc(N4CCOCC4)cc3)nn12 [Example 1211, [7-(4-Methoxy-pyridin-3-yl)-pyrrolo[2,1-f][1,2,4]triazin-2-yl]-(4-morpholin-4-yl-phenyl)-amine]
< 100 | < 100 |  |  | COc1cc(N2CCC(N3CCOCC3)CC2)ccc1Nc1ncc2ccc(-c3cccc(CCC#N)c3)n2n1 [Example 1159, 3-(3-{2-[2-Methoxy-4-(4-morpholin-4-yl-piperidin-1-yl)-phenylamino]-pyrrolo[2,1-f][1,2,4]triazin-7-yl}-phenyl)-propionitrile]
> 10000 | 100 to 1000 |  |  | COc1c(Nc2ncc3ccc(-c4ccccc4N(C)S(C)(=O)=O)n3n2)cccc1C(=O)N1CCN(C)CC1 [Example 1230, N-(2-{2-[2-Methoxy-3-(4-methyl-piperazine-1-carbonyl)-phenylamino]-pyrrolo[2,1-f][1,2,4]triazin-7-yl}-phenyl)-N-methyl-methanesulfonamide]
< 100 | < 100 |  |  | COc1ccccc1-c1ccc2cnc(Nc3ccc(OCCN4CCOCC4)cc3)nn12 [Example 1101, [7-(2-Methoxy-phenyl)-pyrrolo[2,1-f][1,2,4]triazin-2-yl]-[4-(2-morpholin-4-yl-ethoxy)-phenyl]-amine]
1000 to 10000 | 100 to 1000 |  |  | COc1ccccc1-c1ccc2cnc(Nc3cccc(C(=O)N4CCN(CCO)CC4)c3OC)nn12 [Example 1233, [4-(2-Hydroxy-ethyl)-piperazin-1-yl]-{2-methoxy-3-[7-(2-methoxy-phenyl)-pyrrolo[2,1-f][1,2,4]triazin-2-ylamino]-phenyl}-methanone]
